The subject of assay [1] is H3K27 methylation in G401 cell. Put plainly: ELISA (H3K27 methylation) assay. The class given is cell-based. The following applies: Homo sapiens, G-401, ELISA Qualified assay, 48 h, read-out: (c) IC50. The essentials: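 G401 cells given 3-fold serial dilutions (eight or twelve points, top 20 μM) for 48 h. Lysate ELISA for H3K27 methylation normalized to H3 signal, % inhibition versus DMSO, IC50 from dose-response fit.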
(ELISA stands for enzyme-linked immunosorbent assay.)

Assay [2] concerns the target wild type PRC2 (wtPRC2) complex (Homo sapiens (Human), UniProt O75530). Put plainly: EED LC-MS assay. The format is biochemical. The following applies: EED LC-MS Qualified assay; read-out: (b) IC50. The method, then:
EED LC-MS Assay Representative compounds of the present invention were serially and separately diluted 3-fold in DMSO to obtain a total of eight or twelve concentrations. […] A 6 μL solution of 3 μM of the peptide substrate H3K27Me0 (histone H3[21-44]-biotin) in reaction buffer was added to initiate each reaction. […] The data were then fit to a dose response equation using the program Helios to get the IC50 values of the test compound.

The next assay has as its target EED (1-441)-His protein (Homo sapiens (Human), UniProt O75530). Put plainly: EED-H3K27Me3 peptide competition binding assay by AlphaScreen. The note with it: EED Alphascreen binding Qualified assay. For orientation: In Alpha technology, singlet oxygen from a donor bead excites a nearby acceptor bead.

wild type PRC2 (wtPRC2) complex, sequence (O75530 whole entry): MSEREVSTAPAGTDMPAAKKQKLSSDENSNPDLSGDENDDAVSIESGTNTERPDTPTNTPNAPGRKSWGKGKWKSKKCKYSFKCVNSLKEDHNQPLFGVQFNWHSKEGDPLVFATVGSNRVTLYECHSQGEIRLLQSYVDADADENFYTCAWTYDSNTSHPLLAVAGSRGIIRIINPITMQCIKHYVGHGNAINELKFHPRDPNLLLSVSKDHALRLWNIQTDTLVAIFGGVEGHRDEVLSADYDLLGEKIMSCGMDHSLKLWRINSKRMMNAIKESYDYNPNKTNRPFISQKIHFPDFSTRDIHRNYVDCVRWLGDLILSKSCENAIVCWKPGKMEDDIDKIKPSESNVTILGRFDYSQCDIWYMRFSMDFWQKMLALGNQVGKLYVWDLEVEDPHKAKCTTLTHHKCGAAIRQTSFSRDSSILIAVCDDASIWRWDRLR
wild type PRC2 (wtPRC2) complex, sequence (Q15910 whole entry partner): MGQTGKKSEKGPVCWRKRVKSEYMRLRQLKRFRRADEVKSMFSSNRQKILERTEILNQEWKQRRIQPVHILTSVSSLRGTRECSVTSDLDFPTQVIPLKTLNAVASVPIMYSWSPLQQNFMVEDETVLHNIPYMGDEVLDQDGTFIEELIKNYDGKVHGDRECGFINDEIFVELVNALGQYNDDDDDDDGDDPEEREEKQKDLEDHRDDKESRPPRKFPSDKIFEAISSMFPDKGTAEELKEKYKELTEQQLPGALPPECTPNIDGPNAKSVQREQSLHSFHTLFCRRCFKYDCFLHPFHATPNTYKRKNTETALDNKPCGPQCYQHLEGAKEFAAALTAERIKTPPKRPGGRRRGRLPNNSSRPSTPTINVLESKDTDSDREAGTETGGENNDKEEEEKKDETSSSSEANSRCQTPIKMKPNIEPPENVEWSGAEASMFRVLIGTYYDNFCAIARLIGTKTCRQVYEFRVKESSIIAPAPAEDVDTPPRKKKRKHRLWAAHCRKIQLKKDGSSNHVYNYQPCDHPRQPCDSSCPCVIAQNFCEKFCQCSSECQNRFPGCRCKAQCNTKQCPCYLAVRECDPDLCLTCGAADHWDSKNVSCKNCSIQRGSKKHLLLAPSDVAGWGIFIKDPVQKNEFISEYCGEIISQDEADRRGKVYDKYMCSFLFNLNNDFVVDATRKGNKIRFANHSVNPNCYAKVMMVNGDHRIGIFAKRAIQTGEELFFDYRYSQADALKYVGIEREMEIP
wild type PRC2 (wtPRC2) complex, sequence (Q15022 whole entry partner): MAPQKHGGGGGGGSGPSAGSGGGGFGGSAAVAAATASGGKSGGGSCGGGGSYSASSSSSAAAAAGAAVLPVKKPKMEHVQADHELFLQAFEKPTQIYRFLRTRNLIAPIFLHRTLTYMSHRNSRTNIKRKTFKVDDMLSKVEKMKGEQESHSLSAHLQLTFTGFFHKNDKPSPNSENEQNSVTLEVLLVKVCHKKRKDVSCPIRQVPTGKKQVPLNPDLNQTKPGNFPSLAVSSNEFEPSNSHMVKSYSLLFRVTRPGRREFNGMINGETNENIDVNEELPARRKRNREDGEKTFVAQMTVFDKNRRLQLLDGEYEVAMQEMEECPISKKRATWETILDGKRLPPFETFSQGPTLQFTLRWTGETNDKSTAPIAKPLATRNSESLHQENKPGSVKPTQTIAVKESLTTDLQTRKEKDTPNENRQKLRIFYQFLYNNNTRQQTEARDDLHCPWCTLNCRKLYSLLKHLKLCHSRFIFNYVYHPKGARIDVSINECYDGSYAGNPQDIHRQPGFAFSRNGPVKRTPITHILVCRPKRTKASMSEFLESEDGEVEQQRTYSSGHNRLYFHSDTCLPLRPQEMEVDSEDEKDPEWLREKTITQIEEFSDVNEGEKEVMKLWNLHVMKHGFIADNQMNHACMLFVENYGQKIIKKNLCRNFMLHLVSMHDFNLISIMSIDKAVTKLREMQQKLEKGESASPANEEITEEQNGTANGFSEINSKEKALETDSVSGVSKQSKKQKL
EED (1-441)-His protein, sequence (O75530 whole entry): as the sequence (O75530 whole entry) above

Usually IC50 stands for the concentration at which inhibition is half-maximal. With `Fc1ccc2c(c1CNc1ncc(-c3cccnc3C(F)F)c3cncn13)CCO2` [Example 51, 8-(2-(difluoromethyl)pyridin-3-yl)-N-((5-fluoro-2,3-dihydrobenzofuran-4-yl)methyl)imidazo[1,5-c]pyrimidin-5-amine], the IC50 in assay [1] was determined as 6.4 nM; in assay [2], 9.4 nM; on EED (1-441)-His protein, 5.2 nM.

Regarding `Fc1ccc2c(c1CNc1ncc(-c3cnccc3C(F)F)c3cncn13)CCO2` [Example 52, 8-(4-(difluoromethyl)pyridin-3-yl)-N-((5-fluoro-2,3-dihydrobenzofuran-4-yl)methyl)imidazo[1,5-c]pyrimidin-5-amine], the IC50 in assay [1] was 42.5 nM; in assay [2], 17.8 nM; on EED (1-441)-His protein it was 10.2 nM.

Take `Cc1nn(C(C)C)cc1-c1cnc(NCc2c(F)ccc3c2CCO3)n2cncc12` [Example 53, N-((5-fluoro-2,3-dihydrobenzofuran-4-yl)methyl)-8-(1-isopropyl-3-methyl-1H-pyrazol-4-yl)imidazo[1,5-c]pyrimidin-5-amine]: the results for the IC50 (in assay [1]; in assay [2]; at EED (1-441)-His protein) were 94.8 nM, 23.1 nM and 9.9 nM, respectively.

With `Cc1cc(C(=O)N(C)C)ncc1-c1cnc(NCc2c(F)ccc3c2CCO3)n2cncc12` [Example 54, 5-(5-(((5-fluoro-2,3-dihydrobenzofuran-4-yl)methyl)amino)imidazo[1,5-c]pyrimidin-8-yl)-N,N,4-trimethylpicolinamide], the IC50 in assay [1] amounted to 8.1 nM; in assay [2], 12.6 nM; at EED (1-441)-His protein, 4.4 nM.

Regarding `Fc1ccc2c(c1CNc1ncc(-c3ccc(CN4CCC4)cc3)c3cncn13)CCO2` [Example 55, 8-(4-(azetidin-1-ylmethyl)phenyl)-N-((5-fluoro-2,3-dihydrobenzofuran-4-yl)methyl)imidazo[1,5-c]pyrimidin-5-amine], the IC50 in assay [1] worked out at 37.4 nM; in assay [2], 13.7 nM; on EED (1-441)-His protein it was 3.3 nM.

For `Cc1nc(C(F)(F)CO)ccc1-c1cnc(NCc2c(F)ccc3c2CCO3)n2cncc12` [Example 56, 2,2-difluoro-2-(5-(5-(((5-fluoro-2,3-dihydrobenzofuran-4-yl)methyl)amino)imidazo[1,5-c]pyrimidin-8-yl)-6-methylpyridin-2-yl)ethan-1-ol], the IC50 in assay [1] amounted to 20.9 nM; in assay [2], 18.2 nM; on EED (1-441)-His protein, 4.8 nM.

Consider `Cc1nc(C(F)F)ccc1-c1cnc(NCc2c(F)ccc3c2CCO3)n2cncc12` [Example 57, 8-(6-(difluoromethyl)-2-methylpyridin-3-yl)-N-((5-fluoro-2,3-dihydrobenzofuran-4-yl)methyl)imidazo[1,5-c]pyrimidin-5-amine], for which the IC50 in assay [1] was determined as 54.1 nM; in assay [2], 12.5 nM; on EED (1-441)-His protein, 7.5 nM.

As for `Cc1c(-c2cnc(NCc3c(F)ccc4c3CCO4)n3cncc23)ccnc1CF` [Example 58, N-((5-fluoro-2,3-dihydrobenzofuran-4-yl)methyl)-8-(2-(fluoromethyl)-3-methylpyridin-4-yl)imidazo[1,5-c]pyrimidin-5-amine], the IC50 was 36.1 nM in assay [1], 25.2 nM in assay [2] and 14.9 nM at EED (1-441)-His protein.

`Cc1nc(C(F)(F)CN2CCCC2)ccc1-c1cnc(NCc2c(F)ccc3c2CCO3)n2cncc12` [Example 59, 8-(6-(1,1-difluoro-2-(pyrrolidin-1-yl)ethyl)-2-methylpyridin-3-yl)-N-((5-fluoro-2,3-dihydrobenzofuran-4-yl)methyl)imidazo[1,5-c]pyrimidin-5-amine]: the IC50 is 98.7 nM in assay [1], 25.5 nM in assay [2] and 13 nM at EED (1-441)-His protein.

Regarding `Fc1ccc2c(c1CNc1ncc(-c3ccc(C(F)F)nc3)c3cncn13)CCO2` [Example 60, 8-(6-(difluoromethyl)pyridin-3-yl)-N-((5-fluoro-2,3-dihydrobenzofuran-4-yl)methyl)imidazo[1,5-c]pyrimidin-5-amine], the IC50 in assay [1] is 52.1 nM; in assay [2], 11.3 nM; at EED (1-441)-His protein it was 15.3 nM.

Consider `Cc1nc(OC(C)C)ncc1-c1cnc(NCc2c(F)ccc3c2CCO3)n2cncc12` [Example 61, N-((5-fluoro-2,3-dihydrobenzofuran-4-yl)methyl)-8-(2-isopropoxy-4-methylpyrimidin-5-yl)imidazo[1,5-c]pyrimidin-5-amine], for which the concentration for half-maximal inhibition (IC50) in assay [1] was 22.5 nM; in assay [2], 19.1 nM; at EED (1-441)-His protein, 8.3 nM.

`Cc1cn(-c2cnc(NCc3c(F)ccc4c3CCO4)n3cncc23)cn1` [Example 62, N-((5-fluoro-2,3-dihydrobenzofuran-4-yl)methyl)-8-(4-methyl-1H-imidazol-1-yl)imidazo[1,5-c]pyrimidin-5-amine]: the IC50 in assay [1] amounted to 13.2 nM; in assay [2], 6.6 nM; on EED (1-441)-His protein, 3.7 nM.

For the molecule `Cc1nc(C(=O)N(C)C)ccc1-c1cnc(NCc2c(F)ccc3c2CCO3)n2cncc12` [Example 63, 5-(5-(((5-fluoro-2,3-dihydrobenzofuran-4-yl)methyl)amino)imidazo[1,5-c]pyrimidin-8-yl)-N,N,6-trimethylpicolinamide], the IC50 came to 61.8 nM in assay [1], 26.7 nM in assay [2] and 9.5 nM at EED (1-441)-His protein.

Take `CN(C)Cc1ccc(-c2cnc(NCc3cccc4occc34)n3cncc23)cc1` [Example 64, N-(benzofuran-4-ylmethyl)-8-(4-((dimethylamino)methyl)phenyl)imidazo[1,5-c]pyrimidin-5-amine]: the IC50 was 403 nM in assay [1], 54.7 nM in assay [2] and 55.4 nM at EED (1-441)-His protein.

Consider `c1cc(CNc2ncc(-c3ccncc3)c3cncn23)c2ccoc2c1` [Example 65, N-(benzofuran-4-ylmethyl)-8-(pyridin-4-yl)imidazo[1,5-c]pyrimidin-5-amine], for which the IC50 in assay [1] was 641 nM; in assay [2] it was 93.2 nM; on EED (1-441)-His protein it was 285 nM.

In the case of `c1cc(CNc2ncc(-c3ccc(N4CCNCC4)nc3)c3cncn23)c2ccoc2c1` [Example 66, N-(benzofuran-4-ylmethyl)-8-(6-(piperazin-1-yl)pyridin-3-yl)imidazo[1,5-c]pyrimidin-5-amine], the IC50 stood at 444 nM in assay [1], 49.3 nM in assay [2] and 72.1 nM at EED (1-441)-His protein.

Take `CN(C)Cc1ccc(-c2cnc(NCc3c(F)ccc4occc34)n3cncc23)cc1` [Example 67, 8-(4-((dimethylamino)methyl)phenyl)-N-((5-fluorobenzofuran-4-yl)methyl)imidazo[1,5-c]pyrimidin-5-amine]: the IC50 in assay [1] was 350 nM; in assay [2], 70.3 nM; at EED (1-441)-His protein, 57.6 nM.

`Cc1ncccc1-c1cnc(NCc2c(F)ccc3c2CCO3)n2cnc(C#N)c12` [Example 69, 5-(((5-fluoro-2,3-dihydrobenzofuran-4-yl)methyl)amino)-8-(2-methylpyridin-3-yl)imidazo[1,5-c]pyrimidine-1-carbonitrile]: the IC50 in assay [1] worked out at 14.7 nM; in assay [2] it was 14.1 nM; at EED (1-441)-His protein, 9 nM.

`N#Cc1ncn2c(NCc3c(F)ccc4c3CCO4)ncc(Br)c12` [Example 70, 8-bromo-5-(((5-fluoro-2,3-dihydrobenzofuran-4-yl)methyl)amino)imidazo[1,5-c]pyrimidine-1-carbonitrile]: the figures for the IC50 (in assay [1]; in assay [2]; on EED (1-441)-His protein) were 86.8 nM, 48.6 nM and 27.9 nM, respectively.

Take `N#Cc1ncn2c(NCc3c(F)ccc4c3CCO4)ncc(-c3ccc(CN4CCCC4)cc3)c12` [Example 71, 5-(((5-fluoro-2,3-dihydrobenzofuran-4-yl)methyl)amino)-8-(4-(pyrrolidin-1-ylmethyl)phenyl)imidazo[1,5-c]pyrimidine-1-carbonitrile]: the IC50 came to 4.1 nM in assay [1], 18 nM in assay [2] and 7.9 nM on EED (1-441)-His protein.

Regarding `Cc1ccc(-c2cnc(NCc3c(F)ccc4c3CCO4)n3cnc(C#N)c23)cn1` [Example 72, 5-(((5-fluoro-2,3-dihydrobenzofuran-4-yl)methyl)amino)-8-(6-methylpyridin-3-yl)imidazo[1,5-c]pyrimidine-1-carbonitrile], the IC50 in assay [1] came out at 22 nM; in assay [2], 20.3 nM; on EED (1-441)-His protein, 10.8 nM.

For the molecule `N#Cc1ncn2c(NCc3c(F)ccc4c3CCO4)ncc(-c3cccnc3C(F)F)c12` [Example 73, 8-(2-(difluoromethyl)pyridin-3-yl)-5-(((5-fluoro-2,3-dihydrobenzofuran-4-yl)methyl)amino)imidazo[1,5-c]pyrimidine-1-carbonitrile], the IC50 in assay [1] was 55.3 nM; in assay [2], 56.4 nM; at EED (1-441)-His protein it was 23.5 nM.

As for `N#Cc1ncn2c(NCc3c(F)ccc4c3CCO4)ncc(-c3cccnc3)c12` [Example 74, 5-(((5-fluoro-2,3-dihydrobenzofuran-4-yl)methyl)amino)-8-(pyridin-3-yl)imidazo[1,5-c]pyrimidine-1-carbonitrile], the IC50 in assay [1] was 7 nM; in assay [2], 15.6 nM; on EED (1-441)-His protein, 5.9 nM.

For the molecule `Cc1ccc(-c2cnc(NCc3c(F)ccc4c3CCO4)n3cnc(C#N)c23)c(C)n1` [Example 75, 8-(2,6-dimethylpyridin-3-yl)-5-(((5-fluoro-2,3-dihydrobenzofuran-4-yl)methyl)amino)imidazo[1,5-c]pyrimidine-1-carbonitrile], the results for the IC50 (in assay [1]; in assay [2]; at EED (1-441)-His protein) were 45.5 nM, 16.7 nM and 8.4 nM, respectively.
